Some test systems named below: Bacillus subtilis; Staphylococcus aureus; Escherichia coli; Escherichia coli UB1005.
Holding throughout (assay): ≥ marks a high value that may be exact or a test limit, other limits are often not marked, values filed in µg/mL are converted to µM
The subject of test [1] is Pseudomonas aeruginosa ATCC 27853.
The subject of test [2] is Candida albicans ATCC 2002.
Test [3] concerns Staphylococcus aureus ATCC 25923.
For test [4], the system named is Pseudomonas aeruginosa PAO1.
The test system of test [5] is Staphylococcus aureus ATCC 6538.
In test [6] the test system is Klebsiella pneumoniae ATCC 700603.
The test system of test [7] is Escherichia coli ATCC 25922.
Test [8] deals with Escherichia coli DH5alpha.

Values after ≈ are worked out from the molar mass of the structure shown.

In the case of `CC[C@H](C)[C@H](NC(=O)CNC(=O)[C@H](CO)NC(=O)[C@H](CC(C)C)NC(=O)[C@H](C)NC(=O)CNC(=O)[C@H](CC(C)C)NC(=O)[C@@H](NC(=O)[C@H](CC(C)C)NC(=O)[C@@H]1CCCN1C(=O)[C@H](CC(C)C)NC(=O)[C@@H](N)Cc1ccccc1)C(C)C)C(=O)N[C@@H](CC(C)C)C(=O)N1CCC[C@H]1C(=O)N[C@@H](CCCCN)C(=O)N[C@H](C(=O)N[C@@H](CC(C)C)C(N)=O)[C@@H](C)CC` [FLPLVLGALSGILPKIL], the MIC in [1] worked out at 2.66 µM (≈ 4.69 µg/mL); in [2] it was 4.68 µM (≈ 8.26 µg/mL); in [3] it was 2.66 µM (≈ 4.69 µg/mL); in test [4], 2.66 µM (≈ 4.69 µg/mL); in the test on Bacillus subtilis, 5.32 µM (≈ 9.37 µg/mL).
For the molecule `CC[C@H](C)[C@H](NC(=O)[C@H](CO)NC(=O)[C@H](C)NC(=O)[C@@H]1CCCN1C(=O)[C@H](CC(C)C)NC(=O)CN)C(=O)N[C@@H](CO)C(=O)N[C@@H](Cc1c[nH]c2ccccc12)C(=O)N[C@H](C(=O)N[C@@H](CCCCN)C(=O)N[C@@H](CCCN=C(N)N)C(=O)N[C@@H](CCCCN)C(=O)N[C@@H](CCCN=C(N)N)C(=O)N[C@@H](CCC(N)=O)C(=O)N[C@@H](CCC(N)=O)C(N)=O)[C@@H](C)CC` [GLPASISWIKRKRQQ], the figures for the MIC in the test on Staphylococcus aureus, in the test with Bacillus subtilis and against Escherichia coli were 141 µM (≈ 250 µg/mL), 17.6 µM (≈ 31.2 µg/mL) and over 141 µM, respectively.
For `CC(C)C[C@H](NC(=O)[C@@H]1CCCN1C(=O)CNC(=O)[C@@H]1CCCN1C(=O)[C@H](CC(C)C)NC(=O)CN)C(=O)NCC(=O)N1CCC[C@H]1C(=O)N[C@@H](C)C(=O)NCC(=O)N1CCC[C@H]1C(=O)N[C@@H](CCCCN)C(=O)O` [GLPGPLGPAGPK], the MIC in test [5] stood at 1330 µM (≈ 1410 µg/mL).
Take `CC[C@H](C)[C@H](NC(=O)[C@@H](NC(=O)[C@@H]1CCCN1C(=O)[C@@H](NC(=O)[C@@H]1CCCN1C(=O)[C@H](CCCCN)NC(=O)[C@H](CCCCN)NC(=O)[C@H](CO)NC(=O)CN)C(C)C)[C@@H](C)CC)C(=O)N[C@@H](Cc1ccc(O)cc1)C(=O)N[C@H]1CSSC[C@@H](C(=O)N[C@@H](CCC(N)=O)C(=O)N[C@@H](CCCN=C(N)N)C(=O)N[C@@H](CCSC)C(=O)O)NC(=O)[C@H](CCCCN)NC(=O)CNC(=O)[C@H]([C@@H](C)O)NC(=O)[C@H](CCCN=C(N)N)NC(=O)[C@H](CCCN=C(N)N)NC(=O)[C@H](CCC(N)=O)NC1=O` [GSKKPVPIIYCQRRTGKCQRM]: the MIC in [6] came to 3.27 µM (≈ 7.99 µg/mL); in test [7], 1.63 µM (≈ 4 µg/mL).
For the molecule `NCCCC[C@H](NC(=O)[C@H](Cc1c[nH]c2ccccc12)NC(=O)CN)C(=O)N[C@@H](CCCN=C(N)N)C(=O)N[C@@H](CCCCN)C(=O)N[C@@H](CCCN=C(N)N)C(=O)N[C@@H](Cc1ccccc1)C(=O)NCC(=O)O` [GWKRKRFG], the MIC in test [8] was at least 200 µM; in test [1] it was over 200 µM; in test [3], over 200 µM; against Bacillus subtilis, at least 200 µM.
Regarding `CC[C@H](C)[C@H](N)C(=O)N[C@@H](CC(N)=O)C(=O)N[C@@H](Cc1c[nH]c2ccccc12)C(=O)N[C@@H](CCCCN)C(=O)N[C@@H](CCCCN)C(=O)N[C@H](C(=O)N[C@@H](Cc1ccccc1)C(=O)N[C@@H](CCC(N)=O)C(=O)N[C@@H](CCCCN)C(=O)N[C@H](C(=O)N[C@@H](CCCCN)C(=O)N[C@@H](CC(N)=O)C(=O)N[C@@H](CC(C)C)C(=O)N[C@H](C(N)=O)C(C)C)C(C)C)[C@@H](C)CC` [INWKKIFQKVKNLV], the figures for the MIC with Bacillus subtilis and in the test with Escherichia coli were at least 45 µM and 8 µM (≈ 14.1 µg/mL), respectively.
Take `CC[C@H](C)[C@H](N)C(=O)N[C@@H](CC(N)=O)C(=O)N[C@@H](Cc1c[nH]c2ccccc12)C(=O)N[C@@H](CCCCN)C(=O)N[C@@H](CCCCN)C(=O)N[C@@H](CC(C)C)C(=O)NCC(=O)N[C@@H](CCCCN)C(=O)N[C@@H](CCCCN)C(=O)N[C@H](C(=O)N[C@@H](CC(C)C)C(=O)NCC(=O)N[C@@H](C)C(=O)N[C@@H](CC(C)C)C(N)=O)[C@@H](C)CC` [INWKKLGKKILGAL]: the MIC in the test on Bacillus subtilis came out at 15.5 µM (≈ 24.5 µg/mL); in the test on Escherichia coli, 43 µM (≈ 68 µg/mL).
With `CC[C@H](C)[C@H](N)C(=O)N[C@@H](CC(N)=O)C(=O)N[C@@H](Cc1c[nH]c2ccccc12)C(=O)N[C@@H](CC(C)C)C(=O)N[C@@H](CCCCN)C(=O)N[C@@H](CC(C)C)C(=O)NCC(=O)N[C@@H](CCCCN)C(=O)N[C@@H](CCCCN)C(=O)N[C@@H](CCSC)C(=O)N[C@@H](CCSC)C(=O)N[C@@H](CO)C(=O)N[C@@H](C)C(=O)N[C@@H](CC(C)C)C(=O)O` [INWLKLGKKMMSAL], the values for the MIC in the test with Bacillus subtilis and against Escherichia coli were 22.5 µM (≈ 36.7 µg/mL) and 100 µM (≈ 163 µg/mL), respectively.
`CC[C@H](C)[C@H](NC(=O)[C@H](CO)NC(=O)[C@H](C)NC(=O)[C@@H](NC(=O)[C@@H](N)CCCCN)[C@@H](C)CC)C(=O)NCC(=O)N[C@@H](CCCCN)C(=O)N[C@@H](CCC(=O)O)C(=O)N[C@H](C(=O)N[C@@H](CC(C)C)C(=O)N[C@@H](CCCCN)C(=O)N[C@@H](C)C(=O)N[C@@H](CC(C)C)C(N)=O)C(C)C` [KIASIGKEVLKAL]: the MIC was at least 100 µM in the test on Bacillus subtilis and 100 µM (≈ 137 µg/mL) with Escherichia coli.
As for `CC[C@H](C)[C@H](NC(=O)[C@H](C)NC(=O)[C@H](CCCN=C(N)N)NC(=O)[C@H](Cc1ccc(O)cc1)NC(=O)[C@H](CC(C)C)NC(=O)[C@H](CC(N)=O)NC(=O)[C@H](Cc1ccc(O)cc1)NC(=O)CNC(=O)[C@H](C)NC(=O)[C@@H](NC(=O)[C@@H](NC(=O)[C@@H](NC(=O)[C@H](CCCN=C(N)N)NC(=O)[C@@H](NC(=O)[C@@H](NC(=O)[C@@H](NC(=O)[C@@H]1CCCN1C(=O)[C@H](Cc1c[nH]c2ccccc12)NC(=O)[C@H](Cc1ccccc1)NC(=O)[C@H](CCCN=C(N)N)NC(=O)[C@H](CCCCN)NC(=O)[C@@H](NC(=O)[C@@H](N)CCCN=C(N)N)[C@@H](C)CC)C(C)C)C(C)C)[C@@H](C)CC)[C@@H](C)O)C(C)C)C(C)C)C(=O)O` [RIKRFWPVVIRTVVAGYNLYRAI], the MIC in test [2] is 0.84 µM (≈ 2.34 µg/mL); in test [3], 13.4 µM (≈ 37.5 µg/mL); with Bacillus subtilis, 13.4 µM (≈ 37.5 µg/mL); in [7], 3.36 µM (≈ 9.38 µg/mL).
Take `CC[C@H](C)[C@H](NC(=O)[C@@H](NC(=O)[C@@H](NC(=O)[C@@H]1CCCN1C(=O)[C@H](Cc1c[nH]c2ccccc12)NC(=O)[C@H](Cc1ccccc1)NC(=O)[C@H](CCCN=C(N)N)NC(=O)[C@H](CCCCN)NC(=O)[C@@H](NC(=O)[C@@H](N)CCCN=C(N)N)[C@@H](C)CC)C(C)C)C(C)C)C(=O)N[C@@H](CCCN=C(N)N)C(=O)N[C@H](C(=O)N[C@H](C(=O)N[C@H](C(=O)N[C@@H](C)C(=O)NCC(=O)N[C@@H](Cc1ccc(O)cc1)C(=O)N[C@@H](CC(N)=O)C(=O)N[C@@H](CC(C)C)C(=O)N[C@@H](Cc1ccc(O)cc1)C(=O)N[C@@H](CCCN=C(N)N)C(=O)N[C@@H](C)C(=O)O)C(C)C)C(C)C)[C@@H](C)O` [RIKRFWPVVIRTVVAGYNLYRA]: the MIC in test [2] is 1.75 µM (≈ 4.69 µg/mL); in [3] it was 28 µM (≈ 75 µg/mL); in test [7], 1.75 µM (≈ 4.69 µg/mL).
Turning to `CC[C@H](C)[C@H](NC(=O)[C@H](CCCN=C(N)N)NC(=O)[C@H](CCCN=C(N)N)NC(=O)[C@@H]1CCCN1C(=O)[C@H](CCCN=C(N)N)NC(=O)[C@H](CCCN=C(N)N)NC(=O)[C@@H]1CCCN1C(=O)[C@H](CCCN=C(N)N)NC(=O)[C@@H]1CCCN1C(=O)[C@H](CC(C)C)NC(=O)[C@H](Cc1ccc(O)cc1)NC(=O)[C@@H]1CCCN1C(=O)[C@@H]1CCCN1C(=O)[C@H](CCCCN)NC(=O)[C@H](CC(=O)O)NC(=O)[C@@H](N)C(C)C)C(=O)N[C@@H](Cc1ccc(O)cc1)C(=O)N[C@@H](CC(N)=O)C(=O)N[C@@H](CCCN=C(N)N)C(N)=O` [VDKPPYLPRPRRPRRIYNR], the results for the MIC (in the test on Escherichia coli UB1005; in test [3]; in test [4]) were 1.02 µM (≈ 2.5 µg/mL), 13.1 µM (≈ 32 µg/mL) and 52.2 µM (≈ 128 µg/mL), respectively.
Consider `CC[C@H](C)[C@H](NC(=O)[C@H](CCCN=C(N)N)NC(=O)[C@H](CCCN=C(N)N)NC(=O)[C@@H]1CCCN1C(=O)[C@H](Cc1ccc(O)cc1)NC(=O)[C@H](CCCN=C(N)N)NC(=O)[C@@H]1CCCN1C(=O)[C@H](CCCN=C(N)N)NC(=O)[C@@H]1CCCN1C(=O)[C@H](CC(C)C)NC(=O)[C@H](Cc1ccc(O)cc1)NC(=O)[C@@H]1CCCN1C(=O)[C@@H]1CCCN1C(=O)[C@H](CCCCN)NC(=O)[C@H](CC(=O)O)NC(=O)[C@@H](N)C(C)C)C(=O)N[C@@H](Cc1ccc(O)cc1)C(=O)N[C@@H](CC(N)=O)C(=O)N[C@@H](CCCN=C(N)N)C(N)=O` [VDKPPYLPRPRYPRRIYNR], for which the MIC amounted to 2.04 µM (≈ 5 µg/mL) against Escherichia coli UB1005, 13 µM (≈ 32 µg/mL) in test [3] and 52.1 µM (≈ 128 µg/mL) in [4].
On to `CC(C)C[C@H](NC(=O)[C@H](Cc1ccc(O)cc1)NC(=O)[C@@H]1CCCN1C(=O)[C@@H]1CCCN1C(=O)[C@H](CCCCN)NC(=O)[C@H](CCCN=C(N)N)NC(=O)[C@@H](N)C(C)C)C(=O)N1CCC[C@H]1C(=O)N[C@@H](CCCN=C(N)N)C(=O)N1CCC[C@H]1C(=O)N[C@@H](CCCN=C(N)N)C(=O)N[C@@H](Cc1c[nH]c2ccccc12)C(=O)N1CCC[C@H]1C(=O)N[C@@H](CCCN=C(N)N)C(=O)N[C@@H](CCCN=C(N)N)C(=O)N[C@@H](Cc1ccccc1)C(=O)N[C@@H](Cc1ccc(O)cc1)C(=O)N[C@@H](CC(N)=O)C(=O)N[C@@H](CCCN=C(N)N)C(N)=O` [VRKPPYLPRPRWPRRFYNR], for which the MIC against Escherichia coli UB1005 came to 0.979 µM (≈ 2.5 µg/mL); in [3] it was 0.391 µM (≈ 1 µg/mL); in [4], 3.13 µM (≈ 8 µg/mL).

For orientation: MIC means the lowest concentration found to suppress growth. Low readings indicate greater potency, high ones weaker potency.

The record behind these values is DBAASP.
